Reference: US20230048132A1, “CYCLIN-DEPENDENT KINASE INHIBITORS” (SPV THERAPEUTICS INC., priority 2018, published 2023)
Where two headings read alike, the source gives them in different places.

Columns and labels:
[1] = test system: LXFL NCl-H1299; test: 2D cell proliferation assay (CellTiter-Blue); format: cell-based; details: 72 h, three days of treatment, read-out: abs. IC50
Method: (§1) Viability of the cells was analyzed by using the CellTiter-Blue® Cell Viability Assay (Promega), and was performed according to manufacturer's instructions. Briefly, cells were harvested from exponential phase cultures (Chapter 6.6), counted and plated in 96-well flat-bottom microtiter plates at a cell density of 4,000-60,000 cells/well in a volume of 140 μl per well. After a 24 hours recovery period, 10 μL cell culture medium (six control wells/plate) or culture medium with test compound were added (Chapter 6.2). The compounds were applied at five concentrations in full-log increments up to 100 μM in duplicate. Cultures were incubated at 37° C. and 5% CO2 in a humidified atmosphere for another three days. After three days of treatment, 20 μl/well CellTiter-Blue® reagent was added. Following incubation with CellTiter-Blue® reagent for up to four hours, fluorescence (FU) was measured by using the Enspire Multimode Plate Reader (excitation λ=570 nm, emission λ=600 nm). For calculations, the mean values of duplicate/sextuplicate (untreated control) data were used.
(§2) An assay was considered fully evaluable if the following quality control criteria were fulfilled: • control/background ratio>3.0-Z′-factor calculated within the assay plate>0.5 [7]—coefficient of variation in the growth control wells <30%
(§3) Drug effects were expressed in terms of the percentage of the fluorescence signal, obtained by comparison of the mean signal in the treated wells with the mean signal of the untreated controls (expressed by the test-versus-control value, T/C-value [%]):
(§4) IC values are reported as relative IC50 values and absolute IC50 and IC70 values. […] The absolute IC70 value gives the concentration of the test compound that achieves T/C=30%. The relative IC50 value is the concentration of test compound that gives a response halfway between the top and bottom plateau of the sigmoidal concentration-response curve (inflection point of the curve). Calculation was done by 4parameter non-linear curve fit (Oncotest Data Warehouse Software).
(§5) If an IC50 or IC70 value could not be determined within the examined dose range (because a compound was either too active or lacked activity), the lowest or highest concentration studied was used for calculation of the geometric mean value.

[2] = test system: MAXFLB MCF7 (ER+); test: 2D cell proliferation assay (CellTiter-Blue); format: cell-based; details: Homo sapiens, 72 h, three days of treatment, read-out: abs. IC50
Method: as §1, §2, §3, §4, §5

[3] = test system: LEXFAM MV4-11; test: 2D cell proliferation assay (CellTiter-Blue); format: cell-based; details: Homo sapiens, 72 h, three days of treatment, read-out: abs. IC50
Method: as §1, §2, §3, §4, §5

[4] = test system: MAXFTN ZR-75-1 (ER+); test: 2D cell proliferation assay (CellTiter-Blue); format: cell-based; details: Homo sapiens, 72 h, three days of treatment, read-out: abs. IC50
Method: as §1, §2, §3, §4, §5

[5] = test system: MEXF WM-266-4; test: 2D cell proliferation assay (CellTiter-Blue); format: cell-based; details: Homo sapiens, 72 h, three days of treatment, read-out: abs. IC50
Method: as §1, §2, §3, §4, §5

[6] = test system: LXFA A549; test: 2D cell proliferation assay (CellTiter-Blue); format: cell-based; details: Homo sapiens, 72 h, three days of treatment, read-out: abs. IC50
Method: as §1, §2, §3, §4, §5

[7] = target: CDK7 CyclinH (Homo sapiens, UniProt P50613); test: CDK inhibition assay (microfluidic LabChip, IC50 format); format: biochemical; details: Table 4a
[8] = target: T1, CDK6-CYCLIND3 (Homo sapiens, UniProt Q00534); test: as above; format: biochemical
T1 construct: purchased Carna

[9] = test system: all cell lines tested; test: 2D cell proliferation assay, geometric mean over the cell line panel; format: cell-based; details: Table 5 lower part; geometric mean over the 8-line panel; read-out: Geomean abs. IC50 value
Method: as §1, §4, §5
The overall potency of a compound was determined by the geometric mean IC50/IC70 values of all individual IC50/IC70 values. In the heatmap representation of IC50 and IC70 values, the distribution of the IC50 or IC70 values obtained for a test compound in the individual cell lines is given in relation to the geometric mean IC50 or IC70 value, obtained over all PDX models tested. The individual IC values range from 1/32-fold geometric mean IC (corresponding to very potent compound activity or high tumor sensitivity) to 32-fold geometric mean IC (corresponding to lack of compound activity or tumor resistance). The heatmap presentation, therefore, represents an antiproliferative “fingerprint” profile of a test compound.

[10] = target: T2, CDK9-CYCLINT1 (Homo sapiens, UniProt P50750); test: CDK inhibition assay (microfluidic LabChip, IC50 format); format: biochemical
T2 construct: purchased Carna

[11] = target: T3, CDK2-CYCLINA (Homo sapiens, UniProt P24941); test: as above; format: biochemical
T3 construct: purchased Millipore

[12] = target: CDK4-CYCLIND1 (Homo sapiens, UniProt P11802); test: as above
[13] = target: T4, CDK2-CYCLINE (Homo sapiens, UniProt P24941); test: as above; format: biochemical; details: Table 3; purified enantiomers; read-out: CDK2-E (E1/E2)
T4 construct: purchased Millipore

[14] = test system: MAXFTN MDA-MB-231 (ER−); test: 2D cell proliferation assay (CellTiter-Blue); format: cell-based; details: Homo sapiens, 72 h, three days of treatment, read-out: abs. IC50
Method: as §1, §2, §3, §4, §5

[15] = Pharmacokinetics after oral administration; format: in vivo; details: rat, plasma, rats
Method: (§6) Nonclinical pharmacokinetic (PK) parameters of lead CDK4/6/9 inhibitors were determined in an intravenous (IV) and oral study (p.o.) conducted in rats. Lead compounds were each administered as a single oral dose at 100 mg/kg or by IV bolus via the caudal vein at the dose of 30 mg/kg. Blood samples were collected at 0.25, 0.5, 1, 2, 4, 8, 12, and 24 hours post i.v. administration, and at 1, 2, 4, 8, 24 and 48 hours post oral administration. Plasma was processed for drug concentration analysis using a validated LCMS/MS method, and PK parameters were calculated by using WinNonlin.

[16] = Pharmacokinetics after IV bolus; format: in vivo; details: rat, plasma; rats; IV bolus 30 mg/kg; N = 3
Method: as §6

[17] = Table 4a, read-out: CDK6 CyclinD3 IC50
[18] = Table 4a, read-out: CDK9 CyclinT1 IC50
[19] = Table 4a, read-out: CDK2 CyclinA IC50
[20] = CDK4 (E1/E2), Table 3, purified enantiomers
[21] = Table 3, purified enantiomers, read-out: CDK6 (E1/E2)
[22] = Table 3, purified enantiomers, read-out: CDK2-A (E1/E2)
[23] = Table 3, purified enantiomers, read-out: CDK9-T (E1/E2)
[24] = oral administration 100 mg/kg, N = 3

T1 sequence (Q00534 whole entry): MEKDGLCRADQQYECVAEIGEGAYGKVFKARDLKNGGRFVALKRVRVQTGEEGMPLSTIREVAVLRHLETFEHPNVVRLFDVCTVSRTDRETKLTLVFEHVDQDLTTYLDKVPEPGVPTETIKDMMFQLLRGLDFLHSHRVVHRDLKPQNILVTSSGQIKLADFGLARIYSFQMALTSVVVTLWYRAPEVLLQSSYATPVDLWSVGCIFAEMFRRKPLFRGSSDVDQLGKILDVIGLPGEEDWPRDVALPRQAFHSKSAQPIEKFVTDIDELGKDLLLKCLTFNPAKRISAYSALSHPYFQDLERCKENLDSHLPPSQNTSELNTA
T1 sequence (P30281 whole entry partner): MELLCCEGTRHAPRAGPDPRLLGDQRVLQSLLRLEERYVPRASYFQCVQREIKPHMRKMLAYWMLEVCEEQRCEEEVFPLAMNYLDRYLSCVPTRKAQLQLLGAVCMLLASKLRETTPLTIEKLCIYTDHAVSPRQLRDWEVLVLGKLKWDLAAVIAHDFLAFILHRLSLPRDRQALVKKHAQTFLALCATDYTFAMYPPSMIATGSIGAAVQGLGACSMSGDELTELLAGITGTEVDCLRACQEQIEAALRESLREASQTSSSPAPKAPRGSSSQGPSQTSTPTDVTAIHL
T2 sequence (P50750 whole entry): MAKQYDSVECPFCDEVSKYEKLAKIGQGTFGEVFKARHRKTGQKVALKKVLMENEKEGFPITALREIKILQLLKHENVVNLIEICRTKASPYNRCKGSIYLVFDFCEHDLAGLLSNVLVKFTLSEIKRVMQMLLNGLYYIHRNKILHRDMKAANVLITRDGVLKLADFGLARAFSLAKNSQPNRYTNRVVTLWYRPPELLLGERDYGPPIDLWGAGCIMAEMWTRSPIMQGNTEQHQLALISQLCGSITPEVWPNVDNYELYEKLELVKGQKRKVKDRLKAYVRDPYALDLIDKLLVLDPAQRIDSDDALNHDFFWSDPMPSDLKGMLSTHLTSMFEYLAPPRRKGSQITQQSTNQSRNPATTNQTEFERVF
T2 sequence (O60563 whole entry partner): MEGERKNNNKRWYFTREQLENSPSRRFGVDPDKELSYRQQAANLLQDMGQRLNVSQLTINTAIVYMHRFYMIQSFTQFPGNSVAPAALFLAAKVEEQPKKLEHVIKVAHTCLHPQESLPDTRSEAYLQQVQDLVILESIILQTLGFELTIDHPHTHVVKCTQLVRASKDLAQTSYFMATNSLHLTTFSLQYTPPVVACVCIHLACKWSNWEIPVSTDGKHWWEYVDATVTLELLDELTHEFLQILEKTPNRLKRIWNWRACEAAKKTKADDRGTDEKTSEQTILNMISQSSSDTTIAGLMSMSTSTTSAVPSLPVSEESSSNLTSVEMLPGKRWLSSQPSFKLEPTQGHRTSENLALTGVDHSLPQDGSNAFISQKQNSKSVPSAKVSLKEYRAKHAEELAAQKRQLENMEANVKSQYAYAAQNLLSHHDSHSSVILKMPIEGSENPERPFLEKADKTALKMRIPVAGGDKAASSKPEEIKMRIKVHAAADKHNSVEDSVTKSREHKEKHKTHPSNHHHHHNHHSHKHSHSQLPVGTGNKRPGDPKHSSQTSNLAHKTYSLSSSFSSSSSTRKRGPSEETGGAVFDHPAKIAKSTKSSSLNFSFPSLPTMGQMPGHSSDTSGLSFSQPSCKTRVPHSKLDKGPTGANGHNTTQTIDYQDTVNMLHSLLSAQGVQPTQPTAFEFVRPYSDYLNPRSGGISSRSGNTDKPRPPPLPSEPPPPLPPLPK
Chain of CDK4-CYCLIND1 (P11802 whole entry): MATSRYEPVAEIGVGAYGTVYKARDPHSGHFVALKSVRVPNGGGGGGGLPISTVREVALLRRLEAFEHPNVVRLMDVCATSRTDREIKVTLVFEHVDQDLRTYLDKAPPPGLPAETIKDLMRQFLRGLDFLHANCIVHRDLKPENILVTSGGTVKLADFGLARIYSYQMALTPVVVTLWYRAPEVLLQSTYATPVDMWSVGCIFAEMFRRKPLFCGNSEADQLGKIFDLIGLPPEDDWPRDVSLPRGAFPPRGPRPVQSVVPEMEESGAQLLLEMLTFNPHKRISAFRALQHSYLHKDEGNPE
Chain of CDK4-CYCLIND1 (P24385 whole entry partner): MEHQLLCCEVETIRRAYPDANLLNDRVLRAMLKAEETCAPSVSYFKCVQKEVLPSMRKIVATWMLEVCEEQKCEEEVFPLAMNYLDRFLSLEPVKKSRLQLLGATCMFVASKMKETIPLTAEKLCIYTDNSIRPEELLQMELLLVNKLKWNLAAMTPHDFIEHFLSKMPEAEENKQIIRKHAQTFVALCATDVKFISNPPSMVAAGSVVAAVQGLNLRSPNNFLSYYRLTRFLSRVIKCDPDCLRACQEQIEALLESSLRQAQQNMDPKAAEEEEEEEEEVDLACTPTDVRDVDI
Chain of CDK7 CyclinH (P50613 whole entry): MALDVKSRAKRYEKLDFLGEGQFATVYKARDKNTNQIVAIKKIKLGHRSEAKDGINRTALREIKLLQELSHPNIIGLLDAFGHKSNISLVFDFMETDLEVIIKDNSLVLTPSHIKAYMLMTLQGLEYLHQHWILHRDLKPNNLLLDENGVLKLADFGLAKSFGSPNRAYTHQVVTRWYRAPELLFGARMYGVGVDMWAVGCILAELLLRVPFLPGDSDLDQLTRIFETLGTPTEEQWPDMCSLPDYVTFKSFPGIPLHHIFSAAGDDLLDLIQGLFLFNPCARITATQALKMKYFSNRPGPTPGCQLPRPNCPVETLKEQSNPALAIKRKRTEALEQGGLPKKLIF
Chain of CDK7 CyclinH (P51946 whole entry partner): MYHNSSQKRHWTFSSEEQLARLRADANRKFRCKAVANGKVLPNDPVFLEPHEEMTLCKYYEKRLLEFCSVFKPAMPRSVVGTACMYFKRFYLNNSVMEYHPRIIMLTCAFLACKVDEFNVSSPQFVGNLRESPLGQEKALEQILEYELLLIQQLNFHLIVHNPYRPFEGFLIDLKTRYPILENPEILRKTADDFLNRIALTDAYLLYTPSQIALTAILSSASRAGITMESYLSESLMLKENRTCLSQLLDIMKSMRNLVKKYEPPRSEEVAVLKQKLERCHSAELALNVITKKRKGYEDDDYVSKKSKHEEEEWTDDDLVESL
Chain of CDK7 CyclinH (P51948 whole entry partner): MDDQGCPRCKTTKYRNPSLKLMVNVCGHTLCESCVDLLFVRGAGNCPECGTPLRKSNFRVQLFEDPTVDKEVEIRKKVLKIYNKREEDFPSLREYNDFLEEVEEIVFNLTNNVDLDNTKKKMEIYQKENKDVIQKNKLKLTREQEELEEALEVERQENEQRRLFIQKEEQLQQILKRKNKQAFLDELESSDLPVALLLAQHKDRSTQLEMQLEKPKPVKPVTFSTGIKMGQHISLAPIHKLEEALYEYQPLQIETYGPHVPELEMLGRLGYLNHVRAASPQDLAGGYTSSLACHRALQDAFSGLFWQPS

SMILES | IC50 [1] | IC50 [2] | IC50 [3] | IC50 [4] | IC50 [5] | IC50 [6] | IC50 [9] | IC50 [12, 20] | IC50 [13] | IC50 [8, 21] | IC50 [11, 22] | IC50 [10, 23] | also measured
CN1CCN(c2ccc(Nc3ncc4c(n3)N(C3CCCC3)C(=O)[C@]3(CCNC3=O)C4)cc2)CC1 [Example D144, (S)-8-cyclopentyl-2-((4-(4-methylpiperazin-1-yl)phenyl)amino)-5,8-dihydro-7H-spiro[pyrido[2,3-d]pyrimidine-6,3′-pyrrolidine]-2′,7-dione] | 219 nM | 114 nM | 10 nM | 100000 nM | 358 nM | 1290 nM | 475 nM | – | – | – | – | – | IC50 [7]: 229 nM; IC50 [8, 17]: 1.54 nM; IC50 [10, 18]: 4.84 nM; IC50 [11, 19]: 29.2 nM
CC(C)N1CCN(c2ccc(Nc3ncc4c(n3)N(C3CCCC3)C(=O)[C@]3(CCNC3=O)C4)cc2F)CC1 [Example D54, (S)-8-cyclopentyl-2-((3-fluoro-4-(4-isopropylpiperazin-1-yl)phenyl)amino)-5,8-dihydro-7H-spiro[pyrido[2,3-d]pyrimidine-6,3′-pyrrolidine]-2′,7-dione] | 212 nM | 188 nM | 10 nM | 10300 nM | 331 nM | 1400 nM | 352 nM | 0.822 nM | 106 nM | 1.65 nM | 45.6 nM | – | –
O=C1NCC[C@@]12Cc1cnc(Nc3ccc(N4CCNCC4)cc3)nc1N(C1CCCC1)C2=O [Example D56, (S)-8-cyclopentyl-2-((4-(piperazin-1-yl)phenyl)amino)-5,8-dihydro-7H-spiro[pyrido[2,3-d]pyrimidine-6,3′-pyrrolidine]-2′,7-dione] | – | – | – | – | – | – | – | 1.4 nM | 104 nM | 2.67 nM | 48.2 nM | 11.1 nM | –
O=C1NCC[C@]12Cc1cnc(Nc3ccc(N4CCNCC4)c(F)c3)nc1N(C1CCCC1)C2=O [Example D49, (R)-8-cyclopentyl-2-((3-fluoro-4-(piperazin-1-yl)phenyl)amino)-5,8-dihydro-7H-spiro[pyrido[2,3-d]pyrimidine-6,3′-pyrrolidine]-2′,7-dione] | – | – | – | – | – | – | – | 136 nM | 5660 nM | 360 nM | 3410 nM | 1240 nM | –
CN1CCN(c2ccc(Nc3ncc4c(n3)N(C3CCCC3)C(=O)[C@]3(CCNC3=O)C4)cc2F)CC1 [Example D52, (S)-8-cyclopentyl-2-((3-fluoro-4-(4-methylpiperazin-1-yl)phenyl)amino)-5,8-dihydro-7H-spiro[pyrido[2,3-d]pyrimidine-6,3′-pyrrolidine]-2′,7-dione] | 151 nM | 122 nM | ≤ 10 nM | 925 nM | 509 nM | 257 nM | 184 nM | 0.904 nM | 101 nM | 1.94 nM | 53.1 nM | 5.75 nM | IC50 [14]: 318 nM; bioavailability ([15]; oral 100 mg/kg versus IV 30 mg/kg, read-out: BIOAVAILABILITY F): 43.9%; AUC [15, 24]: 37700 ng·h/mL; Cmax [15, 24]: 4350 ng/mL; MRT [15, 24]: 5.48 h; half-life [15, 24]: 7.1 h; Cmax [16]: 6360 ng/mL; clearance [16]: 19.3 mL/min/kg; half-life [16]: 4.45 h
O=C1NCC[C@@]12Cc1cnc(Nc3ccc(N4CCNCC4)cn3)nc1N(C1CCCC1)C2=O [Example D58, (S)-8-cyclopentyl-2-((5-(piperazin-1-yl)pyridin-2-yl)amino)-5,8-dihydro-7H-spiro[pyrido[2,3-d]pyrimidine-6,3′-pyrrolidine]-2′,7-dione] | – | – | – | – | – | – | – | 2.96 nM | 4240 nM | 3.26 nM | 3120 nM | 198 nM | –
Cc1cc(Nc2ncc3c(n2)N(C2CCCC2)C(=O)[C@]2(CCNC2=O)C3)ccc1N1CCN(C(C)C)CC1 [Example D158, (S)-8-cyclopentyl-2-((4-(4-isopropylpiperazin-1-yl)-3-methylphenyl)amino)-5,8-dihydro-7H-spiro[pyrido[2,3-d]pyrimidine-6,3′-pyrrolidine]-2′,7-dione] | 257 nM | 55 nM | 38 nM | 5520 nM | 451 nM | 554 nM | 301 nM | – | – | – | – | – | IC50 ([12]; CDK4 CyclinD1 IC50, Table 4a, a second value in parentheses for some compounds): 1.04 nM; IC50 [7]: 120 nM; IC50 [8, 17]: 2.17 nM; IC50 [10, 18]: 5.25 nM; IC50 [11, 19]: 22.2 nM
CC(C)N1CCN(c2ccc(Nc3ncc4c(n3)N(C3CCCC3)C(=O)[C@@]3(CCNC3=O)C4)cc2F)CC1 [Example D53, (R)-8-cyclopentyl-2-((3-fluoro-4-(4-isopropylpiperazin-1-yl)phenyl)amino) -5,8-dihydro-7H-spiro[pyrido[2,3-d]pyrimidine-6,3′-pyrrolidine]-2′,7-dione] | – | – | – | – | – | – | – | 178 nM | 12100 nM | 384 nM | 9670 nM | – | –
O=C1NCC[C@]12Cc1cnc(Nc3ccc(N4CCNCC4)cc3)nc1N(C1CCCC1)C2=O [Example D55, (R)-8-cyclopentyl-2-((4-(piperazin-1-yl)phenyl)amino)-5,8-dihydro-7H-spiro[pyrido[2,3-d]pyrimidine-6,3′-pyrrolidine]-2′,7-dione] | – | – | – | – | – | – | – | 251 nM | 8880 nM | 519 nM | 6000 nM | 1800 nM | –
CN1CCN(c2ccc(Nc3ncc4c(n3)N(C3CCCC3)C(=O)[C@@]3(CCNC3=O)C4)cc2F)CC1 [Example D51, (R)-8-cyclopentyl-2-((3-fluoro-4-(4-methylpiperazin-1-yl)phenyl)amino)-5,8-dihydro-7H-spiro[pyrido[2,3-d]pyrimidine-6,3′-pyrrolidine]-2′,7-dione] | – | – | – | – | – | – | – | 211 nM | 11500 nM | 444 nM | 5940 nM | 1150 nM | –
O=C1NCC[C@]12Cc1cnc(Nc3ccc(N4CCNCC4)cn3)nc1N(C1CCCC1)C2=O [Example D57, (R)-8-cyclopentyl-2-((5-(piperazin-1-yl)pyridin-2-yl)amino)-5,8-dihydro-7H-spiro[pyrido[2,3-d]pyrimidine-6,3′-pyrrolidine]-2′,7-dione] | – | – | – | – | – | – | – | 1050 nM | > 100000 nM | 2010 nM | > 100000 nM | > 100000 nM | –
